Data set [1] is described as follows: Prodrug conversion in Tris/HCl buffer assessed as Escherichia coli MPT synthase-mediated 2-amino-6-(3,4-dihydroxybut-1-ynyl)pteridin-4(3H)-one formation after 30 mins by HPLC analysis. In kind it is ADME. The settings on record: 0.5 h.
The nature of data set [2]: Prodrug conversion in HEPES buffer assessed as Escherichia coli MPT synthase-mediated 2-amino-6-(3,4-dihydroxybut-1-ynyl)pteridin-4(3H)-one formation measured as activation of human apo-sulfite oxidase incubated for 30 mins prior to apo-sulfite oxidase addition measured after 30 mins by spectrophotometric analysis in presence of gephyrin. The settings on record: 0.5 h.
The nature of data set [3]: Half life of aerial oxidation of the compound at pH 3. In kind it is physicochemical.

The text below walks through data of ChEMBL document CHEMBL2331113, “Synthesis of cyclic pyranopterin monophosphate, a biosynthetic intermediate in the molybdenum cofactor pathway” (J Med Chem, 2013).

As to `Br.Nc1nc2c(c(=O)[nH]1)N[C@@H]1[C@H](N2)O[C@@H]2COP(=O)(O)O[C@@H]2C1(O)O`, the Drug metabolism entry in data set [1] and in data set [2] was “Dose-dependent effect” in each case.
On to `Nc1nc2c(c(=O)[nH]1)N[C@@H]1[C@H](N2)O[C@@H]2COP(=O)(O)O[C@@H]2C1(O)O` [FOSDENOPTERIN], for which the Drug metabolism result in data set [1] and in data set [2] was “Active” throughout. In addition, the half-life in data set [3] was 10.6 h.

Broadly, the half-life is the time needed for the level to fall by half in the phase considered. Read a high half-life as slow loss.
